{"source": "patent US20160130352A1", "about": "“RHAMM, A CO-RECEPTOR AND ITS INTERACTIONS WITH OTHER RECEPTORS IN CANCER CELL MOTILITY AND THE IDENTIFICATION OF CANCER PROGNITOR CELL POPULATIONS” (THE REGENTS OF THE UNIVERSITY OF CALIFORNIA, priority 2006, published 2016)", "key": {"MDA-MB-231 cells": {"test_system": "MDA-MB-231 cells", "assay": "Time-lapse cinemicrography random motility", "format": "cell-based, human", "procedure": "(§1) Random motility analyses were performed to quantify the effect of the blocking Rhamm and CD44 antibodies, HA binding peptide, hyaluronan, and the MEK inhibitor, PD098059 on cell motility. Cells were seeded on T-25 flasks (Costar, Cambridge. Mass.) at 1×10^5 cells/flask. Cells were incubated with anti-Rhamm antibody (30 μg/ml), anti-CD44 antibody (30 μg/ml), a mixture of anti-Rhamm (30 μg/ml) and anti-CD44 antibodies ([…]), HA binding peptide (1 μg/ml) or its scrambled control (1 μg/ml), and/or 50 μM PD098059 for 30 minutes prior to filming. Alternatively, cells were stimulated with 50 μg/L of HA immediately prior to filming. As a control, a mixture of mouse and rabbit IgG (30 μg/ml each), DMSO (for PD098059) or PBS (for HA) were used. Cell locomotion was monitored for a period of 6 hours using a 10× modulation objective (Zeiss, Germany) attached to a Zeiss Axiovert 100 inverted microscope equipped with Hoffman Modulation contrast optical filters (Greenvale, N.Y.) and a 37° C. heated stage. Cell images were captured with a CCD video camera module attached to a Hamamatsu CCD camera controller. Motility was assessed using Northern Exposure 2.9 image analysis software (Empix Imaging, Mississauga, Ontario). Nuclear displacement of 20-30 cells was measured and data were subjected to statistical analysis (see below). Each experiment was repeated at least three times. PD098059 MEK inhibitor was used to test the involvement of the MAP kinase pathway in the motility of these cells. The cells were incubated with the MEK1 inhibitor at 50 μM in complete culture medium 30 minutes before the beginning of motility filming. DMSO alone was used as a control. The results of motility analyses were expressed as means (μm/hour) means±standard deviations, unless otherwise indicated."}, "MCF7 cells": {"test_system": "MCF7 cells", "assay": "Time-lapse cinemicrography random motility", "format": "cell-based, human", "conditions": "for motility: peptide 1 μg/ml, 30 minutes prior to filming", "procedure": "as §1, with “Alternatively, cells were stimulated with 50 μg/L of HA immediately prior to filming.” left out"}, "[1]": {"set-up": "species or system mice", "conditions": "mouse, in vivo, iv", "excerpt": "J Am Chem Soc. 125(25): p. 7494-5, hereby incorporated by reference), MDA-MB-231 breast tumor xenografts which express high levels of Rhamm and CD44 (FIG. 2A) and the liver, whose endothelial cells express the HA endocytic receptor, Hare (See FIG. 13D and Weigel, P. H. and J. H. Yik, 2002. Glycans as endocytosis signals: the cases of the asialoglycoprotein and hyaluronan/chondroitin sulfate receptors. Biochim Biophys Acta. 1572(2-3): p. 341-63)."}, "[2]": {"assay": "Pharmacokinetic parameters of HA in serum by route of administration (competitive binding ELISA)", "format": "in vivo", "excerpt": "Table 2 below is a summary of the kinetic analysis of HA in serum by different routes of administration."}, "[3]": {"set-up": "species or system humans", "conditions": "human, in vivo, iv"}, "[4]": {"assay": "Kinetics and tolerability of HA injected I.V. in rats", "format": "in vivo", "conditions": "I.V. 1-12 mg/kg"}, "[5]": {"conditions": "PD098059 50 μM and/or anti-Rhamm antibodies"}, "[6]": {"conditions": "serum starved 24-48 hours, 25-50 μg/ml exogenous HA"}, "[7]": {"conditions": "peptide 1 μg/ml, 30 minutes prior to filming"}}, "note": "Where two headings read alike, the source gives them in different places."}
{"compound": "COc1cccc(-c2cc(=O)c3ccccc3o2)c1N", "note": "[PD098059]", "values": [{"measurement": "basal motility rate", "setting": "MDA-MB-231 cells; [5]", "result": "significantly inhibited"}, {"measurement": "basal motility", "setting": "MCF7 cells; [5]", "result": "no effect"}]}
{"compound": "Hyaluronan [HA]", "values": [{"measurement": "half-life", "setting": "[1]", "result": "up to 12 hrs"}, {"measurement": "Cmax", "setting": "[2]; Intravenous", "result": 5096.00, "unit": "µg/mL"}, {"measurement": "Tmax", "setting": "[2]; Intravenous", "result": 12, "unit": "h"}, {"measurement": "Cmax", "setting": "[2]; Oral", "result": 0.15, "unit": "µg/mL"}, {"measurement": "Tmax", "setting": "[2]; Oral", "result": 36, "unit": "h"}, {"measurement": "Cmax", "setting": "[2]; Subcutaneous", "result": 1454.00, "unit": "µg/mL"}, {"measurement": "Tmax", "setting": "[2]; Subcutaneous", "result": 72, "unit": "h"}, {"measurement": "motility", "setting": "MDA-MB-231 cells; [6]", "result": "significantly stimulated motility"}, {"measurement": "motility rate", "setting": "MCF7 cells; [6]", "result": "no effect"}, {"measurement": "half-life", "setting": "[3]", "result": "up to 12 hrs"}, {"measurement": "T1/2 (HA serum levels)", "setting": "[3]; 1.5 mg/kg", "result": 12, "unit": "h"}, {"measurement": "tolerability", "setting": "[4]", "result": "well tolerated"}]}
{"compound": "YKQKIKHVVKLK [HA-binding peptide]", "values": [{"measurement": "motility", "setting": "MDA-MB-231 cells; [7]", "result": "significantly reduced motility"}, {"measurement": "motility", "setting": "MCF7 cells", "result": "no effect"}]}
{"compound": "YLKQKKVKKHIV [scrambled control peptide]", "values": [{"measurement": "motility", "setting": "MDA-MB-231 cells; [7]", "result": "no effect"}, {"measurement": "motility", "setting": "MCF7 cells", "result": "no effect"}]}
